Reference: patent US20210123061A1, “METHODS AND COMPOSITIONS FOR TREATING INFLAMMATORY DISEASE OR DISORDER” (THE BRIGHAM AND WOMEN'S HOSPITAL, INC., priority 2018, published 2021)

Legend:
STAT1-pSer727 = test: Anti-STAT1-pSer727 immunoprecipitation with parallel reaction monitoring mass spectrometry; type: cell-based, human; conditions: versus IFN-γ (plus DMSO) alone
Experimental: FIGS. 3A-3F show RSK1 is activated through JAK signaling and its inhibition suppresses STAT1 phosphorylation at Ser727 in human primary macrophages in response to IFN-γ. (FIG. 3A) PBMC-derived macrophages were pre-treated with DMSO or 10 μM a pan-JAK inhibitor, pyridone-6, for two hours and then stimulated with IFN-γ for indicated time under serum starvation. Cell lysates were subjected to immunoprecipitation with normal IgG or anti-RSK1 followed by immunoblot analysis using the indicated antibodies. WCL, whole cell lysate. N=3 donors. […] (FIG. 3D) Densitometric based quantification (ImageJ Software) of STAT1-pSer727 in panel (FIG. 3C) plus three additional donors. […] (FIG. 3F) Quantification of PRM ions (MS/MS ions) of the indicated STAT1 peptide harboring a phosphorylation at Ser727 (and oxidized methionine, m), generated from the digest of panel […].
Anti-STAT1-pSer727 IPs—The STAT1 peptide with phosphorylation at Ser727 was detected on the Orbitrap Fusion Lumos. […]
Anti-STAT1-pSer727 IPs—The three most abundant fragment ions of the target peptide (LQTTDNLLPmsPEEFDEVSR (SEQ ID NO: 5)-m10-oxidation, s11-phosphorylation, 806.3575 m/z, z=3) as annotated by SEQUEST (PD2.1) were used for quantification: y12^2+, 759.79455 m/z; c12^+, 1424.64911 m/z; b8^+, 899.48327 m/z. AUC of each fragment was calculated using the Skyline software (https://skyline.gs.washington.edu). […]

[1] = tested on: activated macrophages (CD45+ CD11b+ F4/80+ CD86+ cells); test: Mouse model of thioglycollate-elicited peritonitis, flow cytometry of peritoneal cells; type: in vivo, mice; conditions: 30 mg/kg intraperitoneally, twice; 24 hours after thioglycollate
Experimental: FIGS. 5A-5D show RSK activity plays a key role for pro-inflammatory activation of macrophages in peritonitis model. (FIG. 5A) Model overview—mice were injected intraperitoneally with vehicle or 30 mg/kg BI-D1870. Twenty-four hours after the injection, 4% thioglycollate as well as vehicle or 30 mg/kg BI-D1870 were injected intraperitoneally in the mice. Forty-eight hours after the first injection, peritoneal cells were harvested. (FIG. 5B) Representative results of flow cytometry. Peritoneal cells were incubated with APC-Cy7-anti-CD45, FITC-anti-F4/80, APC-anti-CD11b, and PE-Cy7-anti-CD86 followed by flow-cytometry analysis. (FIG. 5C) Ratio of CD86-positive cells in peritoneal macrophages. Data are means±SE. N=10 mice. *P<0.05 indicates significance compared to control (vehicle) by unpaired Student's test. (FIG. 5D) Cell numbers of peritoneal CD86-positive macrophages. Data are means±SE. N=10 mice. *P<0.05 indicates significance by unpaired Student's test.
Mouse peritonitis model. C57BL/6J wild type mice (12 weeks old, male) were purchased from Jackson Laboratory. We injected intraperitoneally with vehicle (30% PEG400, 0.5% Tween80, 5% Propylene glycol) or 30 mg/kg BI-D1870 (Selleck Chemicals). […]
Flow cytometry. […] After washing cells with EasySep Buffer, stained cells were analyzed by BD FACSAria II (BD Bioscience) and FlowJo software (FlowJo LLC).

With `CC(C)CCN1c2nc(Nc3cc(F)c(O)c(F)c3)ncc2N(C)C(=O)C1C` (stereo not shown) [BI-D1870] the STAT1-pSer727 recovered post-immunoprecipitation (STAT1-pSer727) was “less”, the “pSer727 site-specific signal, PRM of three EThcD fragment ions” value (STAT1-pSer727) was “decrease in signal” and the “accumulation of activated macrophages in peritoneal cavity” value [1] was “suppressed”. The “ratio of activated macrophages to total macrophages” value [1] was “suppressed”.
